Laboratory results published in ChEMBL document CHEMBL5291721, “A preclinical secondary pharmacology resource illuminates target-adverse drug reaction associations of marketed drugs” (Nat Commun, 2023).

Legend:
B2 bradykinin receptor = target: T1, B2 bradykinin receptor (Homo sapiens, UniProt P30411)
T1 sequence (P30411 whole entry): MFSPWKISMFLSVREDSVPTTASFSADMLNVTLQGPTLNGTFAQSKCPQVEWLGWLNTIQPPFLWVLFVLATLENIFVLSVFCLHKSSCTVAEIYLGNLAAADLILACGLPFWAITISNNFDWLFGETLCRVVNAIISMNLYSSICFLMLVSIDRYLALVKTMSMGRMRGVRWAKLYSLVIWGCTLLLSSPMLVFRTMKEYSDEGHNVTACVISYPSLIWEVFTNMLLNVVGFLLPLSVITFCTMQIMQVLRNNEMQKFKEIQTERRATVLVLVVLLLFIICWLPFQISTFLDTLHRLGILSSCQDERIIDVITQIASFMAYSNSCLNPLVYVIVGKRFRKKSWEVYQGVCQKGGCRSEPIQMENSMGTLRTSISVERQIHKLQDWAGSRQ

[1] = target: T2, Prostaglandin G/H synthase 1 (Rattus norvegicus, UniProt Q63921); type: functional
T2 sequence (Q63921 whole entry): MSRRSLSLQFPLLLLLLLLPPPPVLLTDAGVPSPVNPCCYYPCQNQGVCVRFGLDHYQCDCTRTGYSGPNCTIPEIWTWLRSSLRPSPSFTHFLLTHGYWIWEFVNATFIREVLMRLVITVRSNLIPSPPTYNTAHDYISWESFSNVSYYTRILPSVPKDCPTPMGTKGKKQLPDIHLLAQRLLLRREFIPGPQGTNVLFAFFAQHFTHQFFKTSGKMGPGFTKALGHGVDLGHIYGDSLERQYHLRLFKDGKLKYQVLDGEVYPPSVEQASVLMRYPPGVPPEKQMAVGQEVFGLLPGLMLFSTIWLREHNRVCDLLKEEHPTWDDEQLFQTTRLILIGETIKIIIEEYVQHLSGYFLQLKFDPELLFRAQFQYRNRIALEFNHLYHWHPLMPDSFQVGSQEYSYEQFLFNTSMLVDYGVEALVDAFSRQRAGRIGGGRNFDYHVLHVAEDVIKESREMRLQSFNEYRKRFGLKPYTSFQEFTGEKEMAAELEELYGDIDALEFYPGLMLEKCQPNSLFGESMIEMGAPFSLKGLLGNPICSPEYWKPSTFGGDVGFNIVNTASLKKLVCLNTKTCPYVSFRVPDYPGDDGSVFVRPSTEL

[2] = target: T3, Alpha-2A adrenergic receptor (Homo sapiens, UniProt P08913); type: functional, cell-based
T3 sequence (P08913 whole entry): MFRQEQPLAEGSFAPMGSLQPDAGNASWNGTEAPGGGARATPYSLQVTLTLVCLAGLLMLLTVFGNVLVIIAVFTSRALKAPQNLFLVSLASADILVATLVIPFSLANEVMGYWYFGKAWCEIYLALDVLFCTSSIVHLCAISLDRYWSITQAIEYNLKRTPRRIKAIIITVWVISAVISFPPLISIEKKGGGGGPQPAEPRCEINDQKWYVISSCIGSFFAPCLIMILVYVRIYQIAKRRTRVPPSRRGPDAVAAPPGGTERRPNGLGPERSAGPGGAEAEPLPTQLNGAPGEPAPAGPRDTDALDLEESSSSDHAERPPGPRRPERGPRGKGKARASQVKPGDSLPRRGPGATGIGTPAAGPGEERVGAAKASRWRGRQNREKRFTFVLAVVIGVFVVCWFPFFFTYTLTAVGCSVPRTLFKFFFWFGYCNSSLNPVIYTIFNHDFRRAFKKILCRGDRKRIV

[3] = target: 5-hydroxytryptamine receptor 2B (Homo sapiens, UniProt P41595); type: functional, cell-based
5-hydroxytryptamine receptor 2B, sequence (P41595 whole entry): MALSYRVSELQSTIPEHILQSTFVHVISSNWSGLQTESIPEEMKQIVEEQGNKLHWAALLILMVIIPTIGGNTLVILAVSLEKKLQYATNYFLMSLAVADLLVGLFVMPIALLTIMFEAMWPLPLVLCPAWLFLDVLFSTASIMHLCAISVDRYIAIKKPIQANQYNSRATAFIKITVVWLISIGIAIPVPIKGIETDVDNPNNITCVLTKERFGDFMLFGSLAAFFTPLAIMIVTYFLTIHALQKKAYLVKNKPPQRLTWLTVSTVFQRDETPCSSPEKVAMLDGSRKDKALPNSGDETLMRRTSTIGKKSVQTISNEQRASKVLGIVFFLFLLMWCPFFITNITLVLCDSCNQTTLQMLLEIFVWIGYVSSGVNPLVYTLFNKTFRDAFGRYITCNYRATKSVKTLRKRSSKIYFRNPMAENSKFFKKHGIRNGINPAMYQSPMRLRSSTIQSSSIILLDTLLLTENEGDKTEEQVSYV

[4] = target: T4, Equilibrative nucleoside transporter 1 (Homo sapiens, UniProt Q99808)
T4 sequence (Q99808 whole entry): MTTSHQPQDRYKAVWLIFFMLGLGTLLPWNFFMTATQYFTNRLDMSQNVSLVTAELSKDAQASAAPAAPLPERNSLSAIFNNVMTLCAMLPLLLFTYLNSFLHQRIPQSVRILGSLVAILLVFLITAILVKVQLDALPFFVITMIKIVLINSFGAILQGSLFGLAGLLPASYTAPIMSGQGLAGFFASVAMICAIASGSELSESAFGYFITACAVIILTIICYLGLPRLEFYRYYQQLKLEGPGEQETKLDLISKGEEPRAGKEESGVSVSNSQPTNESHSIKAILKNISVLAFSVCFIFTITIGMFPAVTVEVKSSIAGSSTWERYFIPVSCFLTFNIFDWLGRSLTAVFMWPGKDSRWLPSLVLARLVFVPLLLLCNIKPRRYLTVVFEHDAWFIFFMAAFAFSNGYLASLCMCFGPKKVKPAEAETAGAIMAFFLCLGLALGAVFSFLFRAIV

[5] = target: T5, Gastrin/cholecystokinin type B receptor (Homo sapiens, UniProt P32239)
T5 sequence (P32239 whole entry): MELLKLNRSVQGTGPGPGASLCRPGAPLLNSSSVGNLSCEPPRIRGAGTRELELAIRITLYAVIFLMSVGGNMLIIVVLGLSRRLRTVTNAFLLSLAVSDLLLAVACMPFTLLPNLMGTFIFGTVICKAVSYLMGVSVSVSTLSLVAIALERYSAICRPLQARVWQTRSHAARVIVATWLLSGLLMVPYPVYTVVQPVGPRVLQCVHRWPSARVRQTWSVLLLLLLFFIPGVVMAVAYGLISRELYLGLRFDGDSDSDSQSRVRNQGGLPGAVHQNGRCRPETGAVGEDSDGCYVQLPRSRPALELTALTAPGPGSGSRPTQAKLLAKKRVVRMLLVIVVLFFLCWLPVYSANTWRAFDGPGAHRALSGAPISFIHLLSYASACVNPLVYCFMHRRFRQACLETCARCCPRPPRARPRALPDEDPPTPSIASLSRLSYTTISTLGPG

[6] = target: Beta-1 adrenergic receptor (Homo sapiens, UniProt P08588); type: functional
Beta-1 adrenergic receptor, sequence (P08588 whole entry): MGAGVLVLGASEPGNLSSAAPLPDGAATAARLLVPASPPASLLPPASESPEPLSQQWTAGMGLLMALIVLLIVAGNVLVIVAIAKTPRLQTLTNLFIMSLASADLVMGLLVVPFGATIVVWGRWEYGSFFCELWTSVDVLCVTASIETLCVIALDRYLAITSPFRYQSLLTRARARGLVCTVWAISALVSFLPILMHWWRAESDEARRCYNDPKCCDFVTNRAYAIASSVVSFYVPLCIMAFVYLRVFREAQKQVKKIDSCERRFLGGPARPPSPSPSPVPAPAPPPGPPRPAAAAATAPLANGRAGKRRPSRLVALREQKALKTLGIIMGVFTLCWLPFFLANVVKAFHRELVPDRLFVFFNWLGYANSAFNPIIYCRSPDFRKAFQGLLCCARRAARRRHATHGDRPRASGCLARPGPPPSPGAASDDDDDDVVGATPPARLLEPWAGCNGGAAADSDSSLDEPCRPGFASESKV

[7] = target: T6, 5-hydroxytryptamine receptor 2C (Homo sapiens, UniProt P28335)
T6 sequence (P28335 whole entry): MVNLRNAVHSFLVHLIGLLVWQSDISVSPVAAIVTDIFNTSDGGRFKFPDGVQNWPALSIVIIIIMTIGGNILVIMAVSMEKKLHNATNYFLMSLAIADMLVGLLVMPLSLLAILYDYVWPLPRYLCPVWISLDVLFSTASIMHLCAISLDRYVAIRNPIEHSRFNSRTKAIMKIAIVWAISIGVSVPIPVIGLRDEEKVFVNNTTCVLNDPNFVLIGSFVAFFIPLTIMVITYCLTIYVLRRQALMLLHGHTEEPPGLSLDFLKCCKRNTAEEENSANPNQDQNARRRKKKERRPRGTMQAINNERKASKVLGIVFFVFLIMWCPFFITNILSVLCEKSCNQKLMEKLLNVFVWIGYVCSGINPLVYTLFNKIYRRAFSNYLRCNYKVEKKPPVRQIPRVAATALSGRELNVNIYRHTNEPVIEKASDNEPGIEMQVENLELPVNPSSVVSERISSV
Further: assay procedure not described here.

SMILES: CCCCCCCCCCCCCCCCCCCCCC(=O)Nc1ccn([C@@H]2O[C@H](CO)[C@@H](O)[C@@H]2O)c(=O)n1 [ENOCITABINE]
- AC50 (B2 bradykinin receptor): > 30 µM
- AC50 [1]: > 30 µM
- AC50 [2]: > 30 µM
- AC50 [3]: > 30 µM
- AC50 [4]: > 30 µM
- AC50 [5]: > 30 µM
- AC50 [6]: > 30 µM

SMILES: CC(=O)[C@]1(O)Cc2c(O)c3c(c(O)c2[C@@H](O[C@H]2C[C@H](N)[C@H](O)[C@H](C)O2)C1)C(=O)c1ccccc1C3=O [IDARUBICIN]
- AC50 (B2 bradykinin receptor): > 10 µM
- AC50 [1]: > 30 µM
- AC50 [4]: > 30 µM
- AC50 [5]: > 30 µM
- AC50 [7]: 9.3 µM
- AC50 [6]: > 30 µM

SMILES: O=C(O)c1ccccc1Nc1cc(Cl)ccc1C(=O)O [LOBENZARIT]
- AC50 (B2 bradykinin receptor): > 30 µM
- AC50 [2]: > 30 µM
- AC50 [3]: > 30 µM
- AC50 [4]: > 30 µM
- AC50 [5]: > 10 µM
- AC50 [7]: > 30 µM
- AC50 [6]: > 30 µM

SMILES: COc1cc2c(cc1OC)C(CCc1ccc(Cl)cc1)N(C)CC2 (stereo unspecified) [METHOPHOLINE]
- AC50 (B2 bradykinin receptor): > 30 µM
- AC50 [1]: 0.77 µM
- AC50 [2]: > 10 µM
- AC50 [3]: > 10 µM
- AC50 [4]: > 30 µM
- AC50 [7]: > 30 µM
- AC50 [6]: > 30 µM

SMILES: C/C(=C\C(=O)OCCCCCCCCC(=O)O)C[C@@H]1OC[C@H](C[C@@H]2O[C@H]2[C@@H](C)[C@H](C)O)[C@@H](O)[C@H]1O [MUPIROCIN]
- AC50 (B2 bradykinin receptor): > 10 µM
- AC50 [1]: > 10 µM
- AC50 [2]: > 10 µM
- AC50 [3]: > 10 µM
- AC50 [4]: > 30 µM
- AC50 [7]: > 30 µM
- AC50 [6]: > 10 µM

SMILES: O=C1CN=C(c2ccccc2)c2cc([N+](=O)[O-])ccc2N1 [NITRAZEPAM]
- AC50 (B2 bradykinin receptor): > 10 µM
- AC50 [1]: > 10 µM
- AC50 [2]: > 10 µM
- AC50 [3]: > 10 µM
- AC50 [4]: > 10 µM
- AC50 [7]: > 30 µM
- AC50 [6]: > 10 µM

SMILES: C#CCOc1ccc(N)cc1C(=O)NCCCC [PARSALMIDE]
- AC50 (B2 bradykinin receptor): > 30 µM
- AC50 [1]: 2.3 µM
- AC50 [2]: > 30 µM
- AC50 [3]: > 30 µM
- AC50 [5]: > 30 µM
- AC50 [7]: > 30 µM
- AC50 [6]: > 30 µM

SMILES: CN(C(=O)c1c(O)c2ccccc2n(C)c1=O)c1ccccc1 [ROQUINIMEX]
- AC50 [1]: > 30 µM
- AC50 [6]: > 30 µM

SMILES: OCc1cc(C(O)CNCCCCCCOCCCCc2ccccc2)ccc1O (stereo unspecified) [SALMETEROL]
- AC50 (B2 bradykinin receptor): > 30 µM
- AC50 [1]: > 30 µM
- AC50 [2]: > 10 µM
- AC50 [3]: 12 µM
- AC50 [4]: > 30 µM
- AC50 [5]: > 30 µM
- AC50 [7]: > 30 µM

SMILES: Cn1cnc2c(F)c(Nc3ccc(Br)cc3Cl)c(C(=O)NOCCO)cc21 [SELUMETINIB]
- AC50 [1]: > 30 µM
- AC50 [4]: > 30 µM

SMILES: CCC(COC(=O)c1cc(OC)c(OC)c(OC)c1)(c1ccccc1)N(C)C (stereo unspecified) [TRIMEBUTINE]
- AC50 (B2 bradykinin receptor): > 30 µM
- AC50 [1]: > 30 µM
- AC50 [2]: > 30 µM
- AC50 [3]: > 30 µM
- AC50 [5]: > 30 µM
- AC50 [7]: > 30 µM
- AC50 [6]: > 30 µM
